Columns and labels:
HDAC1 = HDAC1 (Homo sapiens, UniProt Q13547); assay: Test of HDAC activities, HDAC1 Fluorimetric Drug Discovery Assay Kit; assay type: biochemical; set-up: purchased Enzolifesciences BML-AK511; conditions: samples at 100, 1000, 10000 nM; 37° C. 60 minutes; fluorescence Ex 390, Em 460; read-out: HDAC inhibitory activities, HDAC1
How it was run: (§1)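 HDAC1 tested at 100, 1000 and 10000 nM; recombinant human HDAC6 at 0.1, 1, 10, 100 and 1000 nM. Reaction 60 min at 37° C, then developer for 30 min at 37° C; fluorescence read at Ex 390/Em 460.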

HDAC 6 = target: T1, HDAC 6 (Homo sapiens, UniProt Q9UBN7); assay: Test of HDAC activities, HDAC6 (fluorimetric); assay type: biochemical; set-up: purchased Calbiochem 382180; conditions: samples at 0.1, 1, 10, 100, 1000 nM; 37° C. 60 minutes; fluorescence Ex 390, Em 460; read-out: HDAC inhibitory activities, HDAC6
T1 sequence (Q9UBN7 1-1215): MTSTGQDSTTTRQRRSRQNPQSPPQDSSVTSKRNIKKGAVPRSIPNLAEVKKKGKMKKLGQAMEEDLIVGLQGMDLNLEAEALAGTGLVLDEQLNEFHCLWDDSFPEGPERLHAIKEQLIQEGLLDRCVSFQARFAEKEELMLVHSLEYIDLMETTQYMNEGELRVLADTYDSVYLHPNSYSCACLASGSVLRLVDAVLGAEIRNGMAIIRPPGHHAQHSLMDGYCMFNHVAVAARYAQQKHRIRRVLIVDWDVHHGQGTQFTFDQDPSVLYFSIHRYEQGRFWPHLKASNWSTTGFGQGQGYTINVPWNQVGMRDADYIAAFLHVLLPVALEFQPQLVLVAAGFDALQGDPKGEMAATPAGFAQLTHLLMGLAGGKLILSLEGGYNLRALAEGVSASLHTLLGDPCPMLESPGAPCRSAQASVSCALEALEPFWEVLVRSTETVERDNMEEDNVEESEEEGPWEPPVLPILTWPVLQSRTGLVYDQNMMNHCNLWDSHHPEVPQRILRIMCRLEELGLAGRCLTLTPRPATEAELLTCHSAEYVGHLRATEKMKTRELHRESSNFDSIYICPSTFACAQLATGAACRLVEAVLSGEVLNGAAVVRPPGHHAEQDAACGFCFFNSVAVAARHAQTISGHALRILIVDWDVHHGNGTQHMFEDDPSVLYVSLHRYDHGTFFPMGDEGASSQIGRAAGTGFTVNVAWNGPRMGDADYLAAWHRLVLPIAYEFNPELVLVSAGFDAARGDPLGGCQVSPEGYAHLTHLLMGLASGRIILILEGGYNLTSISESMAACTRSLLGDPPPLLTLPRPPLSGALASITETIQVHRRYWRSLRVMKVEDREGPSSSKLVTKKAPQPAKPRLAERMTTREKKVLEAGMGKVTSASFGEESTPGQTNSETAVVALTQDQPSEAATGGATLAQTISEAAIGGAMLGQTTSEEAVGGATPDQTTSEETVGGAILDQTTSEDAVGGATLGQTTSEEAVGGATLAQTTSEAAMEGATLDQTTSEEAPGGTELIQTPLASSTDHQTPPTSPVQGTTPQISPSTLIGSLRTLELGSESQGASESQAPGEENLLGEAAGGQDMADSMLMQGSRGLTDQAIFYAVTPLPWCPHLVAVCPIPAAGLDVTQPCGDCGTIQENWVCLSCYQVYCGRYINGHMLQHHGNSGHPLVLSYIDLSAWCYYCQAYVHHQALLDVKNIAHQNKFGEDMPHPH
How it was run: as §1

Chain of HDAC1 (Q13547 whole entry): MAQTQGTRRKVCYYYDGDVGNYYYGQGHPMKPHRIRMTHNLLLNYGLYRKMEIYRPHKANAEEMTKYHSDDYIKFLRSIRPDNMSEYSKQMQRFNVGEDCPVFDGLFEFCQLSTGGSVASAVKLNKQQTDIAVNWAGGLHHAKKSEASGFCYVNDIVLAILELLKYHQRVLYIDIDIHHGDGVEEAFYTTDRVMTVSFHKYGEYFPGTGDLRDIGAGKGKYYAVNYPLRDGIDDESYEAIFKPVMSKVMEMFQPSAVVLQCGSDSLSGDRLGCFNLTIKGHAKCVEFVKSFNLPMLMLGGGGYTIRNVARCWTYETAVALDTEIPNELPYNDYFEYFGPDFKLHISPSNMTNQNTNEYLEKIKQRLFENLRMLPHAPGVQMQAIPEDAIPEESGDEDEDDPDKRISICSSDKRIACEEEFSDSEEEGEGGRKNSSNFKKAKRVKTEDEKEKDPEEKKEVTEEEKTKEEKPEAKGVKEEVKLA

IC50 (HDAC1) [nM] | IC50 (HDAC 6) [nM] | Compound
545 | 17 | O=C(NO)c1ccc(CN(C(=O)N2CCN(CC(=O)N3CCOCC3)CC2)c2ccc(C(F)(F)F)cc2)cc1 [Compound 545, N-(4-(hydroxycarbamoyl)benzyl)-4-(2-morpholino-2-oxoethyl)-N-(4-(trifluoromethyl)phenyl)piperazine-1-carboxamide]
1000 | 1.2 | O=C(NO)c1ccc(CN(C(=O)N2CCOCC2)c2ccc(C(F)(F)F)cc2)c(F)c1 [Compound 577, N-(2-fluoro-4-(hydroxycarbamoyl)benzyl)-N-(4-(trifluoromethyl)phenyl)morpholine-4-carboxamide]
1250 | 9.3 | O=C(NO)c1ccc(CN(C(=O)N2CC(F)(F)C2)c2ccc(C(F)(F)F)cc2)c(F)c1 [Compound 578, 3,3-difluoro-N-(2-fluoro-4-(hydroxycarbamoyl)benzyl)-N-(4-(trifluoromethyl)phenyl) azetidine-1-carboxamide]
667 | 21 | O=C(NO)c1ccc(CN(C(=O)N2CCCOCC2)c2ccc(C(F)(F)F)cc2)cc1 [Compound 580, N-(4-(hydroxycarbamoyl)benzyl)-N-(4-(trifluoromethyl)phenyl)-1,4-oxazepane-4-carboxamide]
765 | 4.6 | O=C(NO)c1ccc(CN(C(=O)N2CCN(CC3(O)CCOCC3)CC2)c2cccc(C(F)(F)F)c2)cc1 [Compound 651, 4-((4-hydroxy-tetrahydro-2H-pyran-4-yl)methyl)-N-(4-(hydroxycarbamoyl)benzyl)-N-(3-(trifluoromethyl)phenyl)piperazine-1-carboxamide]
545 | 1.4 | O=C(NO)c1ccc(CN(C(=O)N2CCN(Cc3ccccc3)CC2)c2cccc(C(F)(F)F)c2)cc1 [Compound 683, 4-benzyl-N-(4-(hydroxycarbamoyl)benzyl)-N-(3-(trifluoromethyl)phenyl)piperazine-1-carboxamide]
4980 | 19 | COc1cccc(N2CCN(C(=O)N(Cc3ccc(C(=O)NO)cc3)c3cccc(C(F)(F)F)c3)CC2)c1 [Compound 684, N-(4-(hydroxycarbamoyl)benzyl)-4-(3-methoxyphenyl)-N-(3-(trifluoromethyl)phenyl)piperazine-1-carboxamide]
727 | 6.4 | O=C(NO)c1ccc(CN(C(=O)N2CCN(CC3(F)CCOCC3)CC2)c2cccc(C(F)(F)F)c2)cc1 [Compound 716, 4-((4-fluorotetrahydro-2H-pyran-4-yl)methyl)-N-(4-(hydroxycarbamoyl)benzyl)-N-(3-(trifluoromethyl)phenyl)piperazine-1-carboxamide]
2370 | 24 | O=C(NO)c1ccc(CN(C(=O)N2CCN(c3ccccc3)CC2)c2cccc(C(F)(F)F)c2)cc1 [Compound 717, N-(4-(hydroxycarbamoyl)benzyl)-4-phenyl-N-(3-(trifluoromethyl)phenyl)piperazine-1-carboxamide]
8540 | 405 | O=C(NO)c1ccc(CN(C(=O)N2CCN(C(c3ccccc3)c3ccccc3)CC2)c2cccc(C(F)(F)F)c2)cc1 [Compound 718, 4-benzhydryl-N-(4-(hydroxycarbamoyl)benzyl)-N-(3-(trifluoromethyl)phenyl)piperazine-1-carboxamide]
433 | 1.8 | CCN1CCN(C(=O)N(Cc2ccc(C(=O)NO)cc2)c2cccc(CF)c2)CC1 [Compound 765, 4-ethyl-N-(3-(fluoromethyl)phenyl)-N-(4-(hydroxycarbamoyl)benzyl)piperazine-1-carboxamide]
838 | 3 | CC(C)(F)CN1CCN(C(=O)N(Cc2ccc(C(=O)NO)cc2)c2cccc(CF)c2)CC1 [Compound 766, 4-(2-fluoro-2-methylpropyl)-N-(3-(fluoromethyl)phenyl)-N-(4-(hydroxycarbamoyl)benzyl)piperazine-1-carboxamide]
> 10000 | 64.5 | O=C(NO)c1ccc(CN(C(=O)N2CCOCC2)c2ccccc2OC(F)(F)F)cc1 [Compound 771, N-(4-(hydroxycarbamoyl)benzyl)-N-(2-(trifluoromethoxy)phenyl)morpholine-4-carboxamide]
349 | 2.5 | O=C(NO)c1ccc(CN(C(=O)N2CCOCC2)c2ccc(OC(F)(F)F)cc2)cc1 [Compound 772, N-(4-(hydroxycarbamoyl)benzyl)-N-(4-(trifluoromethoxy)phenyl)morpholine-4-carboxamide]
312 | 2.8 | O=C(NO)c1ccc(CN(C(=O)N2CCOCC2)c2cccc(OC(F)(F)F)c2)cc1 [Compound 773, N-(4-(hydroxycarbamoyl)benzyl)-N-(3-(trifluoromethoxy)phenyl)morpholine-4-carboxamide]
12300 | 119 | COc1ccc(C(F)(F)F)cc1N(Cc1ccc(C(=O)NO)cc1)C(=O)N1CCOCC1 [Compound 774, N-(4-(hydroxycarbamoyl)benzyl)-N-(2-methoxy-5-(trifluoromethyl)phenyl)morpholine-4-carboxamide]
1980 | 31.5 | O=C(NO)c1ccc(CN(C(=O)N2CCOCC2)c2cc(C(F)(F)F)ccc2Cl)cc1 [Compound 776, N-(2-chloro-5-(trifluoromethyl)phenyl)-N-(4-(hydroxycarbamoyl)benzyl)morpholine-4-carboxamide]
6430 | 11 | O=C(NO)c1ccc(CN(C(=O)N2CCOCC2)c2cccc(C(F)(F)F)n2)cc1 [Compound 778, N-(4-(hydroxycarbamoyl)benzyl)-N-(6-(trifluoromethyl)pyridin-2-yl)morpholine-4-carboxamide]
585 | 1.1 | O=C(NO)c1ccc(CN(C(=O)N2CCOCC2)c2cccc(F)c2F)cc1 [Compound 791, N-(2,3-difluorophenyl)-N-(4-(hydroxycarbamoyl)benzyl)morpholine-4-carboxamide]
1600 | 2 | CCN1[C@H](C)CN(C(=O)N(Cc2ccc(C(=O)NO)cc2)c2cccc(C(F)(F)F)c2)C[C@@H]1C [Compound 797, (3S,5R)-4-ethyl-N-(4-(hydroxycarbamoyl)benzyl)-3,5-dimethyl-N-(3-(trifluoromethyl)phenyl)piperazine-1-carboxamide]
633 | 78 | CC1CN(C(=O)N(Cc2ccc(C(=O)NO)cc2)c2cccc(OC(F)(F)F)c2)CC(C)O1 (stereo not drawn) [Compound 800, N-(4-(hydroxycarbamoyl)benzyl)-2,6-dimethyl-N-(3-(trifluoromethoxy)phenyl)morpholine-4-carboxamide]
14900 | 59.7 | CC1CN(C(=O)N(Cc2ccc(C(=O)NO)cc2)c2ccccc2OC(F)(F)F)CC(C)O1 (stereo not drawn) [Compound 801, N-(4-(hydroxycarbamoyl)benzyl)-2,6-dimethyl-N-(2-(trifluoromethoxy)phenyl)morpholine-4-carboxamide]
1600 | 9.4 | C[C@@H]1CN(C(=O)N(Cc2ccc(C(=O)NO)cc2)c2cccc(C(F)(F)F)c2)C[C@H](C)N1Cc1ccccc1 [Compound 802, (3S,5R)-4-benzyl-N-(4-(hydroxycarbamoyl)benzyl)-3,5-dimethyl-N-(3-(trifluoromethyl)phenyl)piperazine-1-carboxamide]
5320 | 213 | C[C@@H]1CN(C(=O)N(Cc2ccc(C(=O)NO)cc2)c2cccc(C(F)(F)F)c2)C[C@H](C)N1CC(F)(F)C(F)(F)F [Compound 803, (3S,5R)—N-(4-(hydroxycarbamoyl)benzyl)-3,5-dimethyl-4-(2,2,3,3,3-pentafluoropropyl)-N-(3-(trifluoromethyl)phenyl)piperazine-1-carboxamide]

— patent publication US9878986B2, “Compounds for selective histone deacetylase inhibitors, and pharmaceutical composition comprising the same” (CHONG KUN DANG PHARMACEUTICAL CORP., priority 2013, dated 2018)
